# Laboratory results as given in patent publication US20110301142A1, “ANTAGONISTS OF LYSOPHOSPHATIDIC ACID RECEPTORS” (priority 2008, published 2011).
# Molecular target: T1, human LPA1 (Homo sapiens, UniProt Q92633)
# T1 construct: the full-length cDNA for human LPA1 was obtained by PCR of the reverse transcription reaction; expressed in transfected cells
# Test: LPA1 calcium flux assay (HLPA1 Ca Flux)
# Format: cell-based
# Settings: Human LPA1 expressing CHO cells, stimulated with 10 nM LPA
# Method: A 1.1 kb cDNA encoding the human LPA1 receptor was cloned from human lung. Human lung RNA (Clontech Laboratories, Inc. USA) was reverse transcribed using the RETROscript kit (Ambion, Inc.) and the full-length cDNA for human LPA1 was obtained by PCR of the reverse transcription reaction. The nucleotide sequence of the cloned human LPA1 was determined by sequencing and confirmed to be identical to the published human LPA1 sequence (An et al. Biochem. Biophys. Res. Commun. 231:619 (1997). The cDNA was cloned into the pcDNAS/FRT expression plasmid and transfected in CHO cells using lipofectamine 2000 (Invitrogen Corp., USA). Clones stably expressing human LPA1 were selected using hygromycin and identified as cells that show Ca-influx in response to LPA.
# (§1) Human LPA1 or LPA3 expressing CHO cells are seeded at 20,000-45,000 cells per well in a 96-well poly-D-lysine coated plate one or two days before the assay. Prior to the assay, the cells are washed once with PBS and then cultured in serum-free media overnight. On the day of the assay, a calcium indicator dye (Calcium 4, Molecular Devices) in assay buffer (HBSS with Ca^2+ and Mg^2+ and containing 20 mM Hepes and 0.3% fatty-acid free human serum albumin) is added to each well and incubation continued for 1 hour at 37° C. 10 μl of test compounds in 2.5% DMSO are added to the cells and incubation continued at room temperature for 30 minutes. Cells are the stimulated by the addition of 10 nM LPA and intracellular Ca^2+ measured using the Flexstation 3 (Molecular Devices). IC50s are determined using Graphpad prism analysis of drug titration curves.
# T1 sequence (Q92633 whole entry): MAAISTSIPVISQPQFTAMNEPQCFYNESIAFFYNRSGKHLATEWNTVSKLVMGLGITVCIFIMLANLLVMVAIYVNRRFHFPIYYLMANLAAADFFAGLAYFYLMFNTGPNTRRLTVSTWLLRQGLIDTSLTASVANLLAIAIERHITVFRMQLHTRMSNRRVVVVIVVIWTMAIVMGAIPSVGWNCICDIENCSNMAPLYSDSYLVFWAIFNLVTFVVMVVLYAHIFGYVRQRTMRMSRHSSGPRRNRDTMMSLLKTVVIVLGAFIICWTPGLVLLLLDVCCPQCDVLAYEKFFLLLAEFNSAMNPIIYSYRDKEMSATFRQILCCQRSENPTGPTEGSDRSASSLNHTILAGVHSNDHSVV
row,SMILES,IC50
1,"Cc1noc(-c2ccc(-c3ccc(C(C)C(=O)O)cc3)cc2)c1NC(=O)O[C@H](C)c1ccccc1Cl (single isomer, unassigned) [Compound 1-127]",< 300 nM
2,"Cc1noc(-c2ccc(-c3ccc(C(C)C(=O)O)cc3)cc2)c1NC(=O)O[C@H](C)c1ccccc1Cl (single isomer, unassigned) [Compound 1-128]",< 300 nM
3,"Cc1noc(-c2ccc(Cn3cnc(C(=O)O)n3)cc2)c1NC(=O)OC(C)c1ccccc1Cl (centres unmarked) [Compound 1-1, 1-(4-{4-[1-(2-Chloro-phenyl)-ethoxycarbonylamino]-3-methyl-isoxazol-5-yl}-benzyl)-1H-[1,2,4]triazole-3-carboxylic acid]",< 300 nM
4,"Cc1noc(-c2ccc(Cn3cncc3C(=O)O)cc2)c1NC(=O)OC(C)c1ccccc1Cl (centres unmarked) [Compound 1-3, 3-(4-{4-[1-(2-Chloro-phenyl)-ethoxycarbonylamino]-3-methyl-isoxazol-5-yl}-benzyl)-3H-1-imidazole-4-carboxylic acid]",< 300 nM
5,"Cc1noc(-c2ccc(Cn3ncc(C(=O)O)c3C(F)(F)F)cc2)c1NC(=O)OC(C)c1ccccc1Cl (centres unmarked) [Compound 1-4, 1-(4-{4-[1-(2-Chloro-phenyl)-ethoxycarbonylamino]-3-methyl-isoxazol-5-yl}-benzyl)-5-trifluoromethyl-1H-pyrazole-4-carboxylic acid]",< 300 nM
6,"CCOC(=O)Cc1ccc(Sc2ccc(-c3onc(C)c3NC(=O)O[C@H](C)c3ccccc3F)cc2)cc1 [Compound 1-105, [4-(4-{4-[(R)-1-(2-Fluoro-phenyl)-ethoxycarbonylamino]-3-methyl-isoxazol-5-yl}-phenylsulfanyl)-phenyl]-acetic acid ethyl ester]",1000 to 50000 nM
7,"Cc1noc(-c2ccc(Sc3cccc(CC(=O)O)c3)cc2)c1NC(=O)O[C@H](C)c1ccccc1F [Compound 1-106, [3-(4-{4-[(R)-1-(2-Fluoro-phenyl)-ethoxycarbonylamino]-3-methyl-isoxazol-5-yl}-phenylsulfanyl)-phenyl]-acetic acid]",300 to 1000 nM
8,"Cc1noc(-c2ccc(Sc3ccccc3CC(=O)O)cc2)c1NC(=O)O[C@H](C)c1ccccc1F [Compound 1-107, [2-(4-{4-[(R)-1-(2-Fluoro-phenyl)-ethoxycarbonylamino]-3-methyl-isoxazol-5-yl}-phenylsulfanyl)-phenyl]-acetic acid]",1000 to 50000 nM
9,"Cc1noc(-c2ccc(Sc3ccc(CC(=O)O)cn3)cc2)c1NC(=O)O[C@H](C)c1ccccc1F [Compound 1-108, [6-(4-{4-[(R)-1-(2-Fluoro-phenyl)-ethoxycarbonylamino]-3-methyl-isoxazol-5-yl}-phenylsulfanyl)-pyridin-3-yl]-acetic acid]",< 300 nM
10,"Cc1cc(-c2onc(C)c2NC(=O)O[C@H](C)c2ccccc2F)ccc1-c1ccc(C(C)C(=O)O)cc1 (stereo partly drawn) [Compound 1-110, 2-(4′-{4-[(R)-1-(2-Fluoro-phenyl)-ethoxycarbonylamino]-3-methyl-isoxazol-5-yl}-2′-methyl-biphenyl-4-yl)-propionic acid]",< 300 nM
11,"Cc1noc(-c2ccc(-c3ccc(CC(=O)O)cc3)cc2)c1NC(=O)OCc1ccccc1Cl [Compound 1-113, {4′-[4-(2-Chloro-benzyloxycarbonylamino)-3-methyl-isoxazol-5-yl]-biphenyl-4-yl}-acetic acid]",300 to 1000 nM
12,"COc1ccc(C(C)OC(=O)Nc2c(C)noc2-c2ccc(-c3ccc(CC(=O)O)cc3)cc2)c(F)c1 (centres unmarked) [Compound 1-118, (4′-{4-[1-(2-Fluoro-4-methoxy-phenyl)-ethoxycarbonylamino]-3-methyl-isoxazol-5-yl}-biphenyl-4-yl)-acetic acid]",300 to 1000 nM
13,Cc1noc(-c2ccc(-c3ccccc3CC(=O)O)cc2)c1NC(=O)O[C@H](C)c1ccccc1 [Compound 1-123],1000 to 50000 nM
14,"Cc1noc(-c2ccc(-c3ccc(C(=O)O)cc3)cc2)c1NC(=O)OC(C)C [Compound 1-125, 4′-(4-Isopropoxycarbonylamino-3-methyl-isoxazol-5-yl)-biphenyl-4-carboxylic acid]",1000 to 50000 nM
15,"COC(=O)Cn1nnc(-c2ccc(-c3onc(C)c3NC(=O)O[C@H](C)c3ccccc3F)cc2)n1 [Compound 1-134, [5-(4-{4-[(R)-1-(2-Fluoro-phenyl)-ethoxycarbonylamino]-3-methyl-isoxazol-5-yl}-phenyl)-tetrazol-2-yl]-acetic acid methyl ester]",1000 to 50000 nM
16,"Cc1noc(-c2ccc(-c3nnn(CC(=O)O)n3)cc2)c1NC(=O)O[C@H](C)c1ccccc1F [Compound 1-135, [5-(4-{4-[(R)-1-(2-Fluoro-phenyl)-ethoxycarbonylamino]-3-methyl-isoxazol-5-yl}-phenyl)-tetrazol-2-yl]-acetic acid]",1000 to 50000 nM
17,"Cc1noc(-c2ccc(-c3ccc(CC(=O)O)cc3)cc2)c1NC(=O)OC(C)(C)C [Compound 1-136, [4′-(4-tert-Butoxycarbonylamino-3-methyl-isoxazol-5-yl)-biphenyl-4-yl]-acetic acid]",300 to 1000 nM
18,Cc1noc(-c2ccc(CN3CC(C(=O)O)C3)cc2)c1NC(=O)O[C@H](C)c1ccccc1 [Compound 1-140],1000 to 50000 nM
19,"Cc1noc(-c2ccc(-c3ccc(CC(=O)O)cc3)cc2)c1NC(=O)O[C@H](C)c1cc(Br)cc(Br)c1 [Compound 1-141, (4′-{4-[(R)-1-(3,5-Dibromo-phenyl)-ethoxycarbonylamino]-3-methyl-isoxazol-5-yl}-biphenyl-4-yl)-acetic acid]",1000 to 50000 nM

# Results, then the compound that gave them:
row,IC50,SMILES
1,< 300 nM,"Cc1noc(-c2ccc(Cc3ccc(C(=O)NC4CC4)cc3)cc2)c1NC(=O)OC(C)c1ccccc1Cl (centres unmarked) [Compound 2-1, {5-[4-(4-Cyclopropylcarbamoyl-benzyl)-phenyl]-3-methyl-isoxazol-4-yl}-carbamic acid 1-(2-chloro-phenyl)-ethyl ester]"
2,1000 to 50000 nM,"Cc1noc(-c2ccc(-c3ccc(CC(=N)N)cc3)cc2)c1NC(=O)O[C@H](C)c1ccccc1F [Compound 2-6, [5-(4′-Carbamimidoylmethyl-biphenyl-4-yl)-3-methyl-isoxazol-4-yl]-carbamic acid (R)-1-(2-fluoro-phenyl)-ethyl ester]"
3,< 300 nM,"CC(=O)NC(=N)Cc1ccc(-c2ccc(-c3onc(C)c3NC(=O)O[C@H](C)c3ccccc3F)cc2)cc1 [Compound 2-7, {5-[4′-(2-Acetylamino-2-imino-ethyl)-biphenyl-4-yl]-3-methyl-isoxazol-4-yl}-carbamic acid (R)-1-(2-fluoro-phenyl)-ethyl ester]"
4,300 to 1000 nM,Cc1noc(-c2ccc3cc(-c4ccc(CC(=O)O)cc4)ccc3c2)c1NC(=O)OC(C)c1ccccc1Cl (centres unmarked) [Compound 3-1]
5,300 to 1000 nM,"Cc1noc(-c2ccc3cc(-c4ccc(CSCCC(=O)O)cc4)ccc3c2)c1NC(=O)OC(C)c1ccccc1Cl (centres unmarked) [Compound 3-2, 3-[4-(6-{4-[1-(2-Chloro-phenyl)-ethoxycarbonylamino]-3-methyl-isoxazol-5-yl}-naphthalen-2-yl)-benzylsulfanyl]-propionic acid]"
6,1000 to 50000 nM,"Cc1noc(-c2csc(-c3ccc(CC(=O)O)cc3)n2)c1NC(=O)O[C@H](C)c1ccccc1F [Compound 3-3, [4-(4-{4-[(R)-1-(2-Fluoro-phenyl)-ethoxycarbonylamino]-3-methyl-isoxazol-5-yl}-thiazol-2-yl)-phenyl]-acetic acid]"
7,1000 to 50000 nM,"Cc1noc(-c2csc(-c3ccccc3CC(=O)O)n2)c1NC(=O)O[C@H](C)c1ccccc1F [Compound 3-5, [2-(4-{4-[(R)-1-(2-Fluoro-phenyl)-ethoxycarbonylamino]-3-methyl-isoxazol-5-yl}-thiazol-2-yl)-phenyl]acetic acid]"
8,300 to 1000 nM,"Cc1noc(-c2csc(-c3cccc(CC(=O)O)c3)n2)c1NC(=O)O[C@H](C)c1ccccc1F [Compound 3-6, [3-(4-{4-[(R)-1-(2-Fluoro-phenyl)-ethoxycarbonylamino]-3-methyl-isoxazol-5-yl}-thiazol-2-yl)-phenyl]acetic acid]"

# Molecular target: T2, human LPA3 (Homo sapiens, UniProt Q9UBY5)
# T2 construct: The full-length cDNA fragment for human LPA3 was obtained by PCR from the vector; expressed in transfected cells; cDNA from the Missouri S&T cDNA Resource Center
# T2 sequence (Q9UBY5 1-353): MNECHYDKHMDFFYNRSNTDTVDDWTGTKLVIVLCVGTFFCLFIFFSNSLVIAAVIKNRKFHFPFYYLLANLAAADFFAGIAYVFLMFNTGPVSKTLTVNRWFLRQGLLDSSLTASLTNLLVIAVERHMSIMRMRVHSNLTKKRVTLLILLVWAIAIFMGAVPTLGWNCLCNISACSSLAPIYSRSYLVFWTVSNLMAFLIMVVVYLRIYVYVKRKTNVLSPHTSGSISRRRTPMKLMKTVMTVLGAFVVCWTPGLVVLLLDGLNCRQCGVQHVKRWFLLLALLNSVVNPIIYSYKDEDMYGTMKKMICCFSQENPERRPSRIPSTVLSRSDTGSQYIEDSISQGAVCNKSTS
# Test: LPA3 calcium flux assay
# Format: cell-based
# Settings: Human LPA3 expressing CHO cells, stimulated with 10 nM LPA; read-out: HLPA3 Ca Flux IC50
# Method: A vector containing the human LPA3 receptor cDNA was obtained from the Missouri S&T cDNA Resource Center (www.cdna.org). The full-length cDNA fragment for human LPA3 was obtained by PCR from the vector. The nucleotide sequence of the cloned human LPA3 was determined by sequencing and confirmed to be identical to the published human LPA3 sequence (NCBI accession number NM 012152). The cDNA was cloned into the pcDNA5/FRT expression plasmid and transfected in CHO cells using lipofectamine 2000 (Invitrogen Corp., USA). Clones stably expressing human LPA3 were selected using hygromycin and identified as cells that show Ca-influx in response to LPA.
# as §1
row,IC50,SMILES
1,300 to 1000 nM,"Cc1noc(-c2ccc(-c3ccc(C(C)C(=O)O)cc3)cc2)c1NC(=O)O[C@H](C)c1ccccc1Cl (single isomer, unassigned) [Compound 1-127]"
2,1000 to 50000 nM,"Cc1noc(-c2ccc(-c3ccc(C(C)C(=O)O)cc3)cc2)c1NC(=O)O[C@H](C)c1ccccc1Cl (single isomer, unassigned) [Compound 1-128]"
3,1000 to 50000 nM,"Cc1noc(-c2ccc(Cn3cnc(C(=O)O)n3)cc2)c1NC(=O)OC(C)c1ccccc1Cl (centres unmarked) [Compound 1-1, 1-(4-{4-[1-(2-Chloro-phenyl)-ethoxycarbonylamino]-3-methyl-isoxazol-5-yl}-benzyl)-1H-[1,2,4]triazole-3-carboxylic acid]"
4,1000 to 50000 nM,"Cc1noc(-c2ccc(Cn3ncc(C(=O)O)c3C(F)(F)F)cc2)c1NC(=O)OC(C)c1ccccc1Cl (centres unmarked) [Compound 1-4, 1-(4-{4-[1-(2-Chloro-phenyl)-ethoxycarbonylamino]-3-methyl-isoxazol-5-yl}-benzyl)-5-trifluoromethyl-1H-pyrazole-4-carboxylic acid]"

row,SMILES,IC50
1,"Cc1noc(-c2ccc(Cn3cncc3C(=O)O)cc2)c1NC(=O)OC(C)c1ccccc1Cl (centres unmarked) [Compound 1-3, 3-(4-{4-[1-(2-Chloro-phenyl)-ethoxycarbonylamino]-3-methyl-isoxazol-5-yl}-benzyl)-3H-1-imidazole-4-carboxylic acid]",1000 to 50000 nM
